Read-outs that look alike come from different tables or passages of the source.
Legend:
Type in all cases: cell-based
bacterial isolates = experiment: microbe, parasite or virus in culture
E. coli = details: for Peptide MIC values: agarose dilution
[1] = test system: inherently resistant microorganisms; experiment: microbe, parasite or virus in culture
P. aeruginosa = details: for Peptide MIC values: agarose dilution
[2] = test system: microorganisms with acquired resistance; experiment: microbe, parasite or virus in culture; details: for Peptide MIC Alone: Tobramycin section; for FIC: peptide + Tobramycin
S. pneumoniae = experiment: Agarose dilution assay (MIC); details: for MIC: S. pneumoniae strain SBSPN3; for Peptide MIC values: agarose dilution
S. aureus = details: for MIC: S. aureus strain SA004; for Peptide MIC values: agarose dilution
H. influenzae = experiment: Agarose dilution assay (MIC); details: H. influenzae strain HIN002
E. faecium = details: for Peptide MIC values: agarose dilution
E. faecalis = E. faecalis strain EFS002
P. vulgaris = experiment: Agarose dilution assay (MIC); details: agarose dilution; P. vulgaris ATCC 13315
S. marcescens = details: for Peptide MIC values: agarose dilution
S. maltophilia = S. maltophilia strain SMA002
K. pneumoniae = K. pneumoniae strain KP002
S. epidermidis = S. epidermidis strain SE010
A. calcoaceticus = A. calcoaceticus strain AC001
E. cloacae = E. cloacae strain ECL007
[3] = E. coli SBECO2, Mupirocin section
[4] = S. aureus SA025 (also SA025 MRSA)
[5] = peptide + Mupirocin, E. coli SBECO2

For ILKKWPWWPWK [MBI 11G13CN], the “Peptide MIC + Tobramycin” value (bacterial isolates; A. baumannii ABI001) was 32 µg/mL, the “Tobramycin MIC + Peptide” value (bacterial isolates; A. baumannii ABI001) was 4 µg/mL and the “Peptide MIC Alone” value (bacterial isolates; A. baumannii ABI001, Tobramycin section) was 128 µg/mL. For the same sequence, the “Mupirocin MIC + Peptide” value (bacterial isolates; E. coli ECO5) was 30 µg/mL, the “Peptide MIC + Mupirocin” value (bacterial isolates; E. coli ECO5) was 8 µg/mL and the “Peptide MIC Alone” value (bacterial isolates; E. coli ECO5, Mupirocin section) was 64 µg/mL. The “Mupirocin MIC + Peptide” value (bacterial isolates; E. coli SBECO2) was 30 µg/mL, the “Peptide MIC + Mupirocin” value (bacterial isolates; E. coli SBECO2) was 8 µg/mL and the “Peptide MIC Alone” value (bacterial isolates; [3]) was 64 µg/mL. The “Peptide MIC + Tobramycin” value (bacterial isolates; P. aeruginosa PA022) was 16 µg/mL, the “Tobramycin MIC + Peptide” value (bacterial isolates; P. aeruginosa PA022) was 4 µg/mL and the “Peptide MIC Alone” value (bacterial isolates; P. aeruginosa PA022, Tobramycin section) was over 128 µg/mL. For the same sequence, the “Peptide MIC + Tobramycin” value (bacterial isolates; [4]) was 2 µg/mL, the “Tobramycin MIC + Peptide” value (bacterial isolates; [4]) was 0.125 µg/mL and the “Peptide MIC Alone” value (bacterial isolates; S. aureus SA025 (also SA025 MRSA), Tobramycin section) was 4 µg/mL. For the same sequence, the “Peptide MIC + Tobramycin” value (bacterial isolates; S. maltophilia SMA029) was 0.125 µg/mL, the “Tobramycin MIC + Peptide” value (bacterial isolates; S. maltophilia SMA029) was 64 µg/mL and the “Peptide MIC Alone” value (bacterial isolates; S. maltophilia SMA029, Tobramycin section) was over 128 µg/mL. The “Peptide MIC + Tobramycin” value (bacterial isolates; S. maltophilia SMA030) was 0.125 µg/mL, the “Tobramycin MIC + Peptide” value (bacterial isolates; S. maltophilia SMA030) was 64 µg/mL and the “Peptide MIC Alone” value (bacterial isolates; S. maltophilia SMA030, Tobramycin section) was over 128 µg/mL. It also gave an FIC (bacterial isolates; peptide + Mupirocin, E. coli ECO5) of 0.43, an FIC (bacterial isolates; [5]) of 0.16 and an FIC (bacterial isolates; peptide + Tobramycin, A. baumannii ABI001) of 0.50. It also gave an FIC (bacterial isolates; peptide + Tobramycin, P. aeruginosa PA022) of 0.56, an FIC (bacterial isolates; peptide + Tobramycin, S. aureus SA025 (also SA025 MRSA)) of 0.50 and an FIC (bacterial isolates; peptide + Tobramycin, S. maltophilia SMA029) of 0.50. For the same sequence, the FIC (bacterial isolates; peptide + Tobramycin, S. maltophilia SMA030) was 0.50, the MIC (E. coli; E. coli strain ECO002) was 32 µg/mL and the MIC (E. coli; E. coli strain SBECO3) was 32 µg/mL. The “Peptide MIC values” (E. coli; E. coli ATCC 25922) was 64 µg/mL, the “Peptide MIC values” (E. coli; E. coli ESS) was 32 µg/mL and the “Peptide MIC values” (E. coli; E. coli NCTC 10418) was 16 µg/mL. The “Peptide MIC + Tobramycin” value ([1]; S. aureus) was 2 µg/mL, the “Peptide MIC Alone” value ([1]; S. aureus, Tobramycin section) was 4 µg/mL and the FIC ([1]; peptide + Tobramycin, S. aureus) was 0.50. For the same sequence, the MIC (P. aeruginosa; P. aeruginosa strain PA004) was over 128 µg/mL, the “Peptide MIC values” (P. aeruginosa; P. aeruginosa ATCC 27853) was over 128 µg/mL and the “Peptide MIC values” (P. aeruginosa; P. aeruginosa NCTC 10662) was over 128 µg/mL. The “Peptide MIC + Tobramycin” value ([2]; A. baumannii ABI001) was 32 µg/mL, the “Tobramycin MIC + Peptide” value ([2]; A. baumannii ABI001) was 4 µg/mL and the “Peptide MIC Alone” value ([2]; A. baumannii ABI001) was 128 µg/mL. The “Peptide MIC” value ([2]; E. faecium, combination with Mupirocin, in µg/mL) was 32, the “Peptide MIC + Tobramycin” value ([2]; P. aeruginosa PA022) was 16 µg/mL and the “Tobramycin MIC + Peptide” value ([2]; P. aeruginosa PA022) was 4 µg/mL. The “Peptide MIC Alone” value ([2]; P. aeruginosa PA022) was over 128 µg/mL, the FIC ([2]; A. baumannii ABI001) was 0.50 and the FIC ([2]; P. aeruginosa PA022) was 0.56. For the same sequence, the MIC (S. pneumoniae) was 128 µg/mL, the “Peptide MIC values” (S. pneumoniae; S. pneumoniae 406LE8) was 128 µg/mL and the “Peptide MIC values” (S. pneumoniae; S. pneumoniae 60120) was over 128 µg/mL. For the same sequence, the “Peptide MIC values” (S. pneumoniae; S. pneumoniae ATCC 49619) was 128 µg/mL, the MIC (S. aureus) was 4 µg/mL and the “Peptide MIC values” (S. aureus; S. aureus ATCC 29213) was 1 µg/mL. For the same sequence, the “Peptide MIC values” (S. aureus; S. aureus MRSA9) was 8 µg/mL, the “Peptide MIC values” (S. aureus; S. aureus MRSA13) was 64 µg/mL and the “Peptide MIC values” (S. aureus; S. aureus MRSA17) was 16 µg/mL. For the same sequence, the “Peptide MIC values” (S. aureus; S. aureus SA206) was 32 µg/mL, the MIC (H. influenzae) was over 128 µg/mL and the MIC (E. faecium; E. faecium strain EFM002) was 16 µg/mL. The “Peptide MIC values” (E. faecium) was 32 µg/mL, the MIC (E. faecalis) was 64 µg/mL and the “Peptide MIC values” (P. vulgaris) was over 128 µg/mL. The MIC (S. marcescens; S. marcescens strain SBSM1) was over 128 µg/mL, the “Peptide MIC values” (S. marcescens; S. marcescens SM76) was over 128 µg/mL and the “Peptide MIC values” (S. marcescens; S. marcescens SM82) was over 128 µg/mL.
In the case of ILKKWPWWPWRK [MBI 11B4CN], the MIC (S. maltophilia) is reported as 64 µg/mL, the MIC (K. pneumoniae) is reported as 128 µg/mL and the “Mupirocin MIC + Peptide” value (bacterial isolates; E. coli SBECO1) is reported as 30 µg/mL. The “Peptide MIC + Mupirocin” value (bacterial isolates; E. coli SBECO1) was 0.5 µg/mL, the “Peptide MIC Alone” value (bacterial isolates; E. coli SBECO1, Mupirocin section) was 8 µg/mL and the “Mupirocin MIC + Peptide” value (bacterial isolates; E. coli SBECO2) was 30 µg/mL. For the same sequence, the “Peptide MIC + Mupirocin” value (bacterial isolates; E. coli SBECO2) was 2 µg/mL, the “Peptide MIC Alone” value (bacterial isolates; [3]) was 32 µg/mL and the FIC (bacterial isolates; peptide + Mupirocin, E. coli SBECO1) was 0.36. The FIC (bacterial isolates; [5]) was 0.09, the MIC (E. coli; E. coli strain ECO003) was 16 µg/mL and the “Peptide MIC values” (E. coli; E. coli ATCC 25922) was 32 µg/mL. For the same sequence, the “Peptide MIC values” (E. coli; E. coli ESS) was 8 µg/mL, the “Peptide MIC values” (E. coli; E. coli NCTC 10418) was 8 µg/mL and the “Peptide MIC + Mupirocin” value ([1]; E. coli) was 8 µg/mL. For the same sequence, the “Peptide MIC Alone” value ([1]; E. coli, Mupirocin section) was 16 µg/mL, the FIC ([1]; peptide + Mupirocin, E. coli) was 0.53 and the MIC (P. aeruginosa; P. aeruginosa strain PA006) was over 128 µg/mL. For the same sequence, the “Peptide MIC values” (P. aeruginosa; P. aeruginosa ATCC 27853) was over 128 µg/mL, the “Peptide MIC values” (P. aeruginosa; P. aeruginosa NCTC 10662) was over 128 µg/mL and the MIC (S. epidermidis) was 4 µg/mL. The MIC (S. pneumoniae) was 128 µg/mL, the “Peptide MIC values” (S. pneumoniae; S. pneumoniae 406LE8) was 128 µg/mL and the “Peptide MIC values” (S. pneumoniae; S. pneumoniae 60120) was over 128 µg/mL. For the same sequence, the “Peptide MIC values” (S. pneumoniae; S. pneumoniae ATCC 49619) was 64 µg/mL, the MIC (A. calcoaceticus) was over 128 µg/mL and the MIC (E. cloacae) was over 128 µg/mL. For the same sequence, the MIC (S. aureus) was 2 µg/mL, the “Peptide MIC values” (S. aureus; S. aureus ATCC 29213) was 1 µg/mL and the “Peptide MIC values” (S. aureus; S. aureus MRSA9) was 4 µg/mL. The “Peptide MIC values” (S. aureus; S. aureus MRSA13) was 32 µg/mL, the “Peptide MIC values” (S. aureus; S. aureus MRSA17) was 8 µg/mL and the “Peptide MIC values” (S. aureus; S. aureus SA206) was 16 µg/mL. For the same sequence, the MIC (H. influenzae) was over 128 µg/mL, the “Peptide MIC values” (E. faecium) was 8 µg/mL and the MIC (E. faecalis) was 16 µg/mL. The “Peptide MIC values” (P. vulgaris) was over 128 µg/mL, the MIC (S. marcescens; S. marcescens strain SBSM2) was over 128 µg/mL and the MIC (S. marcescens; S. marcescens strain SMS004) was over 128 µg/mL. The “Peptide MIC values” (S. marcescens; S. marcescens SM76) was over 128 µg/mL and the “Peptide MIC values” (S. marcescens; S. marcescens SM82) was over 128 µg/mL.
